# Measured values as given in ChEMBL document CHEMBL3525940, “The tissue-specific toxicity of methimazole in the mouse olfactory mucosa is partly mediated through target-tissue metabolic activation by CYP2A5” (Drug Metab Dispos, 2011).
# Legend:
# [1] = system: Mus musculus; assay: Toxicity in Cyp2a5-null B6 mouse olfactory mucosa assessed as epithelium loss measured as intact olfactory epithelium at 50 mg/kg, ip by hematoxylin/eosin staining; assay type: organism-based; parameters: dose 50 mg/kg, route intraperitoneal; settings: in vivo
# [2] = system: Mus musculus; assay: Toxicity in wild-type B6 mouse olfactory mucosa assessed as depletion of nonprotein sulfhydryl at 50 mg/kg, ip at 2 hrs relative to vehicle treated control; assay type: organism-based; parameters: dose 50 mg/kg, route intraperitoneal; settings: in vivo
# [3] = system: Mus musculus; assay: Toxicity in wild-type B6 mouse olfactory mucosa assessed as epithelium loss measured as intact olfactory epithelium at 50 mg/kg, ip by hematoxylin/eosin staining; assay type: organism-based; parameters: dose 50 mg/kg, route intraperitoneal; settings: in vivo
# [4] = system: Mus musculus; assay: Toxicity in wild-type mouse olfactory mucosa assessed as detached epithelium from basement membrane, fractured and disorganized at 50 mg/kg, ip by hematoxylin/eosin staining; assay type: organism-based; parameters: dose 50 mg/kg, route intraperitoneal; settings: in vivo
# [5] = Drug metabolism in Cyp2a5-null B6 mouse olfactory mucosa microsomes assessed as rate of disappearance of compound at 5 uM after 15 mins; assay type: ADME; settings: B6 (C57BL/6), read-out: Drug metabolism
# [6] = system: Mus musculus; assay: Toxicity in Cyp2a5-null B6 mouse olfactory mucosa assessed as attached epithelium from basement membrane at 50 mg/kg, ip by hematoxylin/eosin staining; assay type: organism-based; parameters: dose 50 mg/kg, route intraperitoneal; settings: in vivo
# [7] = system: Mus musculus; assay: Toxicity in Cyp2a5-null B6 mouse olfactory mucosa assessed as depletion of nonprotein sulfhydryl at 50 mg/kg, ip at 2 hrs relative to vehicle treated control; assay type: organism-based; parameters: dose 50 mg/kg, route intraperitoneal; settings: in vivo
# [8] = Drug metabolism in wild-type mouse olfactory mucosa microsomes assessed as rate of disappearance of compound at 5 uM after 15 mins; assay type: ADME; settings: read-out: Drug metabolism
# [9] = system: Mus musculus; assay: Toxicity in wild-type littermates mouse olfactory mucosa assessed as epithelium loss measured as intact olfactory epithelium at 50 mg/kg, ip by hematoxylin/eosin staining; assay type: organism-based; parameters: dose 50 mg/kg, route intraperitoneal; settings: in vivo
# [10] = system: Mus musculus; assay: Toxicity in wild-type mouse olfactory mucosa assessed as epithelium loss at 50 mg/kg, ip by hematoxylin/eosin staining; assay type: organism-based; parameters: dose 50 mg/kg, route intraperitoneal; settings: in vivo
# [11] = system: Mus musculus; assay: Toxicity in wild-type mouse olfactory mucosa assessed as abnormal nasal cavity and epithelium at 50 mg/kg, ip by hematoxylin/eosin staining; assay type: organism-based; parameters: dose 50 mg/kg, route intraperitoneal; settings: in vivo
# [12] = system: Mus musculus; assay: Toxicity in Cyp2a5-null B6 mouse olfactory mucosa assessed as abnormal nasal cavity and epithelium at 50 mg/kg, ip by hematoxylin/eosin staining; assay type: organism-based; parameters: dose 50 mg/kg, route intraperitoneal; settings: in vivo
smiles,measurement,setting,value
Cn1cc[nH]c1=S [METHIMAZOLE],Activity,[1],60.9%
same,Activity,[2],51.8%
same,Activity,[3],14.6%
same,Activity,[4],Toxic
same,"metabolised at 0.25 h, 5 µM",[5],28.7%
same,Activity,[6],Non-toxic
same,Activity,[7],41.5%
same,"metabolised at 0.25 h, 5 µM",[8],58.7%
same,Activity,[9],39.8%
same,Activity,[10],Toxic
same,Activity,[11],Toxic
same,Activity,[12],Non-toxic
